Experiments:
[1] = system: colorectal cancer liver metastases; test: Tumor explant model from freshly resected colorectal cancer liver metastases; assay type: cell-based, human; conditions: FIG. 1
Excerpt: Tumor explant models. Tumor explant models were generated from freshly resected colorectal cancer liver metastases. Explanted tissue specimens were cut into three equal parts, placed in unconditioned medium and either treated with DMSO or Maraviroc (in DMSO) or without any addition. The explants were then harvested and subjected to histological analyses (see FIG. 1) and multiplex protein analysis (see FIG. 3).

[2] = system: colorectal cancer patients with hepatic metastases; test: MARACON-001 phase I trial, Maraviroc monotherapy; assay type: in vivo, human; conditions: for Objective response (RECIST)/ other responses: Patient 4, colorectal cancer (metastatic: lung and liver), monotherapy
Excerpt: Clinical trial. A trial in colorectal cancer patients with hepatic metastases was initiated. […] In the trial, patients receive Maraviroc daily for two months. Safety and feasibility are the primary endpoints of this ongoing trial. The trial is being conducted according to the Declaration of Helsinki and relevant International Conference on Harmonization Good Clinical Practice guidelines and with approval from the ethics committee of the University of Heidelberg. […] All provided written informed consent before participating in this study. The overall workflow of the trial is depicted in FIG. 2.
Assessment of proliferation in histology samples. Briefly cryo sections were fixed with 4% paraformaldehyde (PFA, Sigma Aldrich, Germany). The sections were blocked with 10% normal goat serum (Vector, USA). […] The slides were incubated with a secondary antibody (rabbit-anti-mouse IgG, Bond Polymer Refine Detection System, Leica, Germany) for 8 minutes at room temperature. Further amplification of the signal was achieved through incubation with a third antibody, conjugated with horse radish peroxidase and coupled to dextrane molecules in large numbers, for 8 minutes at room temperature (Poly-HRP-mouse-anti-rabbit IgG, Bond Polymer Refine Detection System, Leica, Germany). The antigen detection was performed by a color reaction with 3,3-di-amino-benzidine (DAB chromogen, Bond Polymer Refine Detection System, Leica, Germany). The sections were counterstained with hematoxylin (Bond Polymer Refine Detection System, Leica, Germany) and mounted with Aquatex (Merck, Germany). Assessment was performed with the Visiomorph Software Package (Visiopharm, Denmark) to quantify positive tumor cells.

**Q.** Which results are given for Cc1nnc(C(C)C)n1[C@@H]1C[C@H]2CC[C@@H](C1)N2CC[C@H](NC(=O)C1CCC(F)(F)CC1)c1ccccc1 [Maraviroc, 4,4-difluoro-N-{(1S)-3-[3-(3-isopropyl-5-methyl-4H-1,2,4-triazol-4-yl)-8-azabicyclo[3.2.1]oct-8-yl]-1-phenylpropyl}cyclohexanecarboxamide]?
**A.** tumor cell death upon inhibition of CCR5 ([1]; explants treated with Maraviroc (in DMSO)): clear tumor cell death; effects in the adjacent liver ([1]; explants treated with Maraviroc): no effects; histology of treated section (hemalaun counterstaining) ([1]; treated section vs untreated control section): Large areas of necrosis and only few remaining tumor cells; tumor cell death in patients (biopsies) ([2]; Maraviroc 300 mg/bid, second biopsy after 8-10 days): tumor cell death; Objective response (RECIST)/ other responses ([2]; liver): −10% (liver); Objective response (RECIST)/ other responses ([2]; lung): −50% (lung),; radiologically measured area of necrosis of liver metastases ([2]; before vs after therapy, percentage of necrotic area of reference lesion, FIG. 5): increase in necrotic area; proliferation activity (Ki67 percentage) of tumor cells ([2]; before vs under treatment (8-10 days, second biopsy), FIG. 4): Reductions; key cytokines for tumor growth, chemotherapy resistance or angiogenesis ([2]; day 0 (pretreatment) vs day 9 of treatment, FIG. 3): Marked Changes; tolerability ([2]; patients): well-tolerated; side effects ([2]; patients, so far): does not have significant side effects

Reference: patent publication US20180289689A1, “USE OF CCR5 ANTAGONISTS ALONE OR IN COMBINATION THERAPY FOR THE TREATMENT OF CANCER” (RUPRECHT-KARLS-UNIVERSITÄT HEIDELBERG, priority 2014, published 2018)
